Values joined by “and” are separate entries in the source; they are usually repeats but may differ in a detail not shown here. Equal entries are not always repeated.
Experiments:
[1] = target: T1, Endothelin receptor type B (Homo sapiens, UniProt P24530); experiment: Inhibitory concentration against Endothelin B receptor expressed in CHO-K1 cells; format: cell-based
T1 sequence (P24530 whole entry): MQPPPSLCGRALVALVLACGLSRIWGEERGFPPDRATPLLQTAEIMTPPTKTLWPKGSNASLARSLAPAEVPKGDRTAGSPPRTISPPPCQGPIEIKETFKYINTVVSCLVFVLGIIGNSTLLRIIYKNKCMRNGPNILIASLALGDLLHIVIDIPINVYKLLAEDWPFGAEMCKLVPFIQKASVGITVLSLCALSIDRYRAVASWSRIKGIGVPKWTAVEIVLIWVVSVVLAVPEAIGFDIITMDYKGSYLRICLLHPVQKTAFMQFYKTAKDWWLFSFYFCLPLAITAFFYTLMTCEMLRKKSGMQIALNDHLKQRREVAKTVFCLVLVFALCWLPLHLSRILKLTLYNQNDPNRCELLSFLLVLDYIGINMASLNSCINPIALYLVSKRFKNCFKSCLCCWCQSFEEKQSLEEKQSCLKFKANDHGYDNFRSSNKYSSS

[2] = organism: Oryctolagus cuniculus; experiment: Inhibition of arachidonic acid release (AAR-B) in rabbit renal artery vascular smooth muscle cells (ETA) upon stimulation with ET-1; format: functional
[3] = target: T2, Endothelin-1 receptor (Homo sapiens, UniProt P25101); experiment: Inhibitory concentration to the endothelin A receptor expressed in LtK cells; format: cell-based
T2 sequence (P25101 whole entry): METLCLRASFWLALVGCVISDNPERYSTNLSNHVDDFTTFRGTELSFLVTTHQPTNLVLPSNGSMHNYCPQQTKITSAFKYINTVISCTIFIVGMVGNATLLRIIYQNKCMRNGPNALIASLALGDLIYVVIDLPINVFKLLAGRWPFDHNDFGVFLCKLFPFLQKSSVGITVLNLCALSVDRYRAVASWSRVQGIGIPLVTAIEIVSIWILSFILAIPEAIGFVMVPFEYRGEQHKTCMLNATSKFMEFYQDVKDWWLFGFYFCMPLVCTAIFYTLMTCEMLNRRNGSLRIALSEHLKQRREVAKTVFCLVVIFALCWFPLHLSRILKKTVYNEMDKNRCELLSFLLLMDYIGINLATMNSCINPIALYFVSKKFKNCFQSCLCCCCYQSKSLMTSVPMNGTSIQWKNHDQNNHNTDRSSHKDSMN

[4] = target: T3, Endothelin receptor type B (Rattus norvegicus, UniProt P21451); experiment: Compound was evaluated for binding affinity against rat Endothelin B receptor; inactive
T3 sequence (P21451 whole entry): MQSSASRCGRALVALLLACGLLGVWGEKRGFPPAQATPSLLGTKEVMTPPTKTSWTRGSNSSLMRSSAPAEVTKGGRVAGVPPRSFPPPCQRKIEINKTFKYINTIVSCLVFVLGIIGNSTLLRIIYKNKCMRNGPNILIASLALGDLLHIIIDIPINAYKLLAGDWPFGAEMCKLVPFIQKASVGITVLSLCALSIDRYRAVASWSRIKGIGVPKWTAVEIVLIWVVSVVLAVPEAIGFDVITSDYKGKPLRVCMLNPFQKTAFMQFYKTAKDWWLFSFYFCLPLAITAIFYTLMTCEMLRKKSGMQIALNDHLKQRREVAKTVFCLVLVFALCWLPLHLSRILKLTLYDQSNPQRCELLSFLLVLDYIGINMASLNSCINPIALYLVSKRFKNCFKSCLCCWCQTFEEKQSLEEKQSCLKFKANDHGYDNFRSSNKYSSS

[5] = target: Endothelin-1 receptor (Oryctolagus cuniculus); experiment: Compound was evaluated for binding affinity against rabbit Endothelin A receptor
[6] = target: T1, Endothelin receptor type B; experiment: Compound was evaluated for binding affinity against human Endothelin B receptor
[7] = organism: Oryctolagus cuniculus; experiment: Ability to inhibit the release of arachidonic acid in rabbit renal artery vascular smooth muscle cells (ETA) upon stimulation with ET-1; format: functional

Which IC50 [1] does the source give for `COc1cc2c(-c3ccc4c(c3)OCO4)c(C(=O)O)n(Cc3ccc4c(c3)OCO4)c2cc1OCc1ccccc1` here?
Its IC50 is 0.05 µM.

What about the IC50 [2] of the same compound?
Its IC50 is 0.23 µM.

What about the IC50 [3] of the same compound?
The IC50 was 0.03 µM.

Which results are given for `COc1ccc(-c2c(C(=O)O)n(Cc3ccc4c(c3)OCO4)c3cc(OC)c(OC)cc23)cc1OC`?
IC50 [1]: 0.85 µM; IC50 [3]: 0.06 µM

Which IC50 [1] does the source give for `COc1ccc(Cn2c(C(=O)O)c(-c3ccc4c(c3)OCO4)c3cc(OCc4ccccc4)ccc32)cc1` here?
Its IC50 is 4.4 µM.

And the IC50 [3]?
Its IC50 is 2.7 µM.

Which IC50 [1] does the source give for `O=C(O)c1c(-c2ccc3c(c2)OCO3)c2cc(OCc3ccccc3)ccc2n1-c1ccc2c(c1)OCO2` here?
The IC50 was 14 µM.

What about the IC50 [3] of the same compound?
Its IC50 is 1.3 µM.

What does the source list for `CC(C)Oc1c(C(=O)O)sc2ccc(OCc3ccccc3)cc12`?
IC50 [4]: Not Active; IC50 [5]: 6 µM; IC50 [6]: > 100 µM

Which IC50 [1] does the source give for `COc1ccc(-n2c(C(=O)O)c(-c3ccc4c(c3)OCO4)c3ccccc32)cc1` here?
The IC50 was > 25 µM.

What about the IC50 [3] of the same compound?
The IC50 was 2.3 µM.

`O=C(O)c1c(-c2ccc3c(c2)OCO3)c2ccccc2n1-c1ccc2c(c1)OCO2` was tested. Which IC50 [1] did it give?
The IC50 was 22 µM.

And the IC50 [3]?
The IC50 was 4.1 µM.

How did the IC50 [1] turn out when `CCCOc1ccc2c(c1)c(-c1ccc3c(c1)OCO3)c(C(=O)O)n2Cc1ccc2c(c1)OCO2` was run?
The IC50 was 1.1 µM and 0.85 µM.

And the IC50 [3]?
The IC50 was 0.13 µM and 0.08 µM.

With `CCCOc1ccc2c(c1)c(-c1ccc3c(c1)OCO3)c(C(=O)O)n2-c1ccc2c(c1)OCO2` as the compound, how does the IC50 [1] read?
The IC50 was 12 µM.

And the IC50 [3]?
The IC50 was 0.043 µM.

Which results are given for `COc1cccc(-c2c(C(=O)O)n(-c3ccc4c(c3)OCO4)c3ccc(OC)cc23)c1`?
IC50 [1]: > 25 µM; IC50 [3]: 5.5 µM

With `COc1ccc2c(c1)c(-c1ccc(OC)c(OC)c1)c(C(=O)O)n2-c1ccc2c(c1)OCO2` as the compound, how does the IC50 [1] read?
Its IC50 is > 25 µM.

And the IC50 [3]?
The IC50 was 1.5 µM.

How did the IC50 [1] turn out when `COc1ccc2c(c1)c(-c1ccc3c(c1)OCO3)c(C(=O)O)n2Cc1ccc2c(c1)OCO2` was run?
Its IC50 is 2.4 µM.

And the IC50 [3]?
The IC50 was 0.35 µM.

`COc1ccc2c(c1)c(-c1ccc3c(c1)OCO3)c(C(=O)O)n2-c1ccc2c(c1)OCO2` was tested. Which IC50 [1] did it give?
Its IC50 is 15 µM.

What about the IC50 [3] of the same compound?
The IC50 was 0.26 µM.

Which results are given for `O=C(O)c1c(-c2ccc3c(c2)OCO3)c2ccccc2n1Cc1ccccc1`?
IC50 [1]: 14.5 µM; IC50 [3]: 11 µM

How did the IC50 [1] turn out when `CCCOc1ccc2c(-c3ccc4c(c3)OCO4)c(C(=O)O)n(Cc3ccc4c(c3)OCO4)c2c1` was run?
The IC50 was 5.6 µM.

And the IC50 [7]?
The IC50 was 0.48 µM.

And the IC50 [3]?
Its IC50 is 0.047 µM.

With `COc1ccc2c(c1)c(-c1ccc3c(c1)OCO3)c(C(=O)O)n2-c1ccccc1` as the compound, how does the IC50 [1] read?
Its IC50 is > 25 µM.

What about the IC50 [3] of the same compound?
Its IC50 is 12 µM.

With `COc1ccc(-c2c(C(=O)O)n(-c3ccc4c(c3)OCO4)c3ccc(OCc4ccccc4)cc23)cc1` as the compound, how does the IC50 [1] read?
The IC50 was 21 µM.

And the IC50 [3]?
The IC50 was 2.4 µM.

With `O=C(O)c1c(-c2ccc3c(c2)OCO3)c2cc(Cl)ccc2n1-c1ccccc1` as the compound, how does the IC50 [1] read?
The IC50 was > 25 µM.

What about the IC50 [3] of the same compound?
The IC50 was 10 µM.

`O=C(O)c1c(-c2ccc3c(c2)OCO3)c2cc3c(cc2n1Cc1ccc2c(c1)OCO2)OCO3` was tested. Which IC50 [1] did it give?
The IC50 was 0.67 µM.

What about the IC50 [3] of the same compound?
Its IC50 is 0.24 µM.

`COc1cc2c(-c3ccc4c(c3)OCO4)c(C(=O)O)n(-c3ccc4c(c3)OCO4)c2cc1OC` was tested. Which IC50 [1] did it give?
The IC50 was 7 µM.

What about the IC50 [3] of the same compound?
Its IC50 is 0.08 µM.

`COc1ccc(-c2c(C(=O)O)n(-c3ccc4c(c3)OCO4)c3ccc(OC)cc23)cc1` was tested. Which IC50 [1] did it give?
Its IC50 is > 25 µM.

What about the IC50 [3] of the same compound?
The IC50 was 1.1 µM.

How did the IC50 [1] turn out when `COc1ccc2c(-c3ccc4c(c3)OCO4)c(C(=O)O)n(-c3ccccc3)c2c1` was run?
The IC50 was > 25 µM.

And the IC50 [3]?
Its IC50 is 7.4 µM.

How did the IC50 [3] turn out when `COc1cc2c(-c3ccc4c(c3)OCO4)c(C(=O)O)n(Cc3ccc4c(c3)OCO4)c2cc1OC` was run?
The IC50 was 0.06 µM.

`O=C(O)c1c(-c2ccc3c(c2)OCO3)c2ccccc2n1Cc1ccc2c(c1)OCO2` was tested. Which IC50 [1] did it give?
Its IC50 is 3.3 µM.

What about the IC50 [3] of the same compound?
The IC50 was 1.5 µM.

Which IC50 [1] does the source give for `O=C(O)c1c(-c2ccc3c(c2)OCO3)c2cc(OCc3ccccc3)ccc2n1Cc1ccc2c(c1)OCO2` here?
Its IC50 is 2.5 µM.

What about the IC50 [3] of the same compound?
Its IC50 is 0.8 µM.

Which results are given for `COc1ccc(-n2c(C(=O)O)c(-c3ccc4c(c3)OCO4)c3cc(OC)ccc32)cc1`?
IC50 [1]: > 25 µM; IC50 [3]: 3.5 µM

Reference: ChEMBL document CHEMBL1129233, “1,3-diaryl-2-carboxyindoles as potent non-peptide endothelin antagonists” (Bioorg Med Chem Lett, 1996)
